Measured values reported in PubChem BioAssay AID2060483 (Molecular Pharmacology Branch, DTP, NCI, 2025).
“And” between values parts separate entries of the source, which are not always exact repeats. Identical values can stand only once.

Tested on: K24384-001-R-PDC complex spheroids, viability
Assay: Anticancer human tumor K24384-001-R-PDC patient-derived pancreatic adenocarcinoma cell line growth inhibition [GQUAD]
Details: for viability, T/C: stronger effect = lower value; for IC50: curve of compound
Source text: DNA G-quadruplex Stabilizer Agents in Combinations in Complex Spheroids
A high-throughput screen of multi-cell type tumor spheroids was designed to identify active combinations of DNA G-quadruplex stabilizer agents and targeted small molecules. Complex spheroids include a stromal component modeled by human endothelial cells (HUVEC) and fibroblasts modeled by human mesenchymal stem cells (MSCs). The concentration ranges selected for each drug and investigational agent were based upon clinically achievable concentrations if the clinical Cmax of the agent was known.
Compounds. The drugs and investigational agents: pidnarulex (CX-5461; NSC782164), APTO-253 (NSC789042), BRACO-19 (NSC847499), peposertib (NSC802822), ceralasertib (NSC780249), elimusertib (NSC800525), camonsertib (NSC841442), AZD-1390 (NSC803789), olaparib (NSC753686), talazoparib (NSC767125), ART-558 (NSC835418), sotorasib (NSC818433), MRTX-1133 (NSC836407), SN-38 (NSC673596), topotecan (NSC609699), etoposide (NSC141540), doxorubicin (NSC123127), gemcitabine (NSC613327), 5-fluorouracil (NSC19893), paclitaxel (NSC125973), vemurafenib (NSC761431), panobinostat (NSC761190), R-306465 (JNJ-16241199; NSC773264), adavosertib (NSC754352), TP-3654 (NSC805149), carboplatin (NSC241240), KSQ-4279 (NSC840948), and staurosporine (NSC755774) were obtained from the National Cancer Institute (NCI) Developmental Therapeutics Program Chemical Repository (34). The FDA-approved anticancer drug set is available from the NCI Developmental Therapeutics Program. […] The stock solutions were prepared in dimethyl sulfoxide (DMSO, Sigma-Aldrich, St. Louis, MO, cat. D2650) at 800-fold the tested concentration and stored at -70 degrees C prior to their use. All drugs and investigational agents were tested over a range starting from a high concentration at or near the clinical Cmax and decreasing in half-log increments. If the clinical Cmax for an agent had not been determined, the highest concentration tested was 10 microM.
2.3 Cell Culture. All cells were maintained in an incubator at 37 degrees C and 5% CO2 with 95% humidity. The PDC lines were cultured according to standard operating procedures established by the NCI PDMR. All PDCs were thawed and cultured in Matrigel-coated flasks prepared with a working solution of 1X Ham's F-12 nutrient mix, without supplementation (Invitrogen, cat. 11765054), 100 U/mL penicillin-streptomycin (Invitrogen, cat. 15140122), and 2.5% Matrigel (Corning Inc., cat. 354248) for the first three passages. The 857933-349-R-J2-PDC line was cultured in 6C/Colon 1B media, which includes advanced DMEM/F-12 (Thermo Fisher Scientific, cat. 12634028), 10 mM HEPES (Thermo Fisher Scientific, cat. 15630080), 1X GlutaMAX supplement (Thermo Fisher Scientific, cat. 35050061), 0.1 mg/mL primocin (InvivoGen, cat. ant-pm-2), 10% defined fetal bovine serum, heat inactivated (HyClone Laboratories Inc., cat. SH30070.03HI), 50% L-WRN conditioned media (ATCC, cat. CRL-3276), 1.25 mM N-Acetyl-L-cysteine (Sigma-Aldrich, cat. A9165), 10 mM nicotinamide (Sigma-Aldrich, cat. N0636), 1X B-27 supplement (Thermo Fisher Scientific, cat. 17504044), 1X N-2 supplement (Thermo Fisher Scientific, cat. 17502048), 10 microM Y-27632 dihydrochloride (Tocris Bioscience, cat. 1254), and 50 ng/mL human EGF recombinant protein (Thermo Fisher Scientific, cat. PHG0311). The 485176-168-R4-J1-PDC line was cultured in Panc media, which includes all 6C/Colon 1B media components plus 100 ng/mL human FGF-10 (Thermo Fisher Scientific, cat. 100-26), 500 nM SB-431542 (Selleckchem, cat. S1067), and gastrin (Tocris, cat. 3006).
[…]
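Also: spheroids exposed to compounds for seven days.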

Row | SMILES | viability, T/C (compound 0.0316 µM) | viability, T/C (compound 0.1 µM) | viability, T/C (compound 0.316 µM) | viability, T/C (compound 3.16 µM) | viability, T/C (compound 10 µM) | IC50 | viability, T/C (compound 1 µM)
1 | O=C(NO)c1cnc(N2CCN(S(=O)(=O)c3ccc4ccccc4c3)CC2)nc1 | 110% and 91.7% and 116% | 81% and 99.9% and 83.9% | 66.6% and 72.7% and 68.1% | 0.26% and 0.27% and 0.09% | 0.25% and 0.26% and 0.14% | 431 nM and 571 nM and 420 nM | –
2 | O=c1[nH]cc(F)c(=O)[nH]1 | 101% and 113% and 79.9% | 71.8% and 95.1% and 98.7% | 89.6% and 94.3% and 82.2% | 41.3% and 45.8% and 44.6% | 45.5% and 56.4% and 37.8% | 1640 nM and > 10000 nM and 1500 nM | 54.9% and 55.5% and 54.3%
3 | C=CCn1c(=O)c2cnc(Nc3ccc(N4CCN(C)CC4)cc3)nc2n1-c1cccc(C(C)(C)O)n1 | 95.1% and 91% and 82% | 83.3% and 71% and 74.8% | 47.9% and 50.8% and 64% | 13.4% and 12.8% and 16.7% | 19.4% and 15.9% and 18.2% | 290 nM and 271 nM and 466 nM | 20.5% and 17.9% and 22.7%
4 | CC(C)(O)C1CCC(Nc2ccc3ncc(-c4cccc(C(F)(F)F)c4)n3n2)CC1 (centres undefined) | 103% and 104% and 99% | 95.2% and 105% and 94.7% | 113% and 101% and 108% | 25% and 33.2% and 28.8% | 48% and 40.7% and 36% | 1680 nM and 2240 nM and 1390 nM | 61% and 80.7% and 57.2%
5 | C#Cc1c(F)ccc2cc(O)cc(-c3ncc4c(N5CC6CCC(C5)N6)nc(OCC56CCCN5CC(F)C6)nc4c3F)c12 (centres undefined) | 107% and 94.9% and 91.9% | 99.2% and 99.3% and 86.2% | 98.2% and 95.7% and 83.9% | 35.6% and 35.4% and 33.3% | 19.8% and 14.8% and 18.1% | 2060 nM and 1350 nM and 1320 nM | 74.1% and 52.7% and 53%
